Measurements from patent publication US10098900B2, “Pharmaceutical compositions and their use for treatment of cancer and autoimmune diseases” (ZHEJIANG DTRM BIOPHARMA CO. LTD., priority 2015, dated 2018).
Marks after values point to notes of the source that are not given here.

Assays:
[1] = system: TMD-8 cell line; assay: Inhibition assay of tumor cell activity (cell viability), TMD-8; type: cell-based, human; settings: individual compound; for inhibition at 0.01 µM / inhibition at 0.1 µM / inhibition at 1 µM / inhibition at 10 µM / inhibition at 100 µM: Homo sapiens, TMD8, 48 h, read-out: Inh % on TMD-8 cell line (AVG); for Inh % on TMD-8 cell line (AVG): 48 h
Description: Inhibition Assay of Tumor Cell Activity:
Tumor cells (TMD-8, DoHH2 and WSU-DLCL2) were transferred and attached to 96-well plates. After one night, blank buffer and selected concentrations (0.01 nM-100 μM) of the test compound solution were added. After 48 hours incubation, CellTiter-Go was added to lyse the cells. Recording luminescent signal and calculate the percent inhibition of cell viability

[2] = system: TMD-8 lymphoma xenograft; assay: Inhibition of tumor growth in vivo, TMD-8 lymphoma xenograft SCID mouse model; settings: TMD-8, Oral, BID
Description: Inhibition Study of Tumor Growth In Vivo:
SCID mice or nude mice (weighing about 18 g at the beginning of the experiment) were randomly divided into groups by the software in order to achieve close average weights between groups and control the bias within the allowable range. The mice were injected BTK cell lines (TMD-8, WSU-DLCL2 and DoHH-2) for tumor formation. Inhibitors were administered orally once or twice a day, a total of 14 days, 21 days or 28 days. Body weights and tumor volume were recorded.
Xenograft Tumor Models Inoculated with TMD-8, or DoHH2, or WSU-DLCL2 Tumor Cell Lines:
TMD-8 is a sensitive human diffuse large B-cell lymphoma cell line, and DoHH2 is a more difficult to treat human follicular lymphoma cell line, while WSU-DLCL2 is a multi-drug resistant (MDR) human non-Hodgkin's lymphoma cell line. Drug combination therapies provide better efficacies in all three tumor models than single targeted agent alone.
The TMD-8, DoHH2, WSU-DLCL2 tumor cells were maintained in vitro as a suspension culture in RPMI-1640 medium supplemented with 10% heat inactivated fetal calf serum at 37° C. in an atmosphere of 5% CO2 in air. The tumor cells were routinely subcultured twice weekly. The cells growing in an exponential growth phase were harvested and counted for tumor inoculation. Each mouse was inoculated subcutaneously at the right flank with the tumor cells (10×10^6) in 0.2 ml of PBS with Matrigel (1:1) for tumor development. The treatments were started after the average tumor size reached approximately 100-200 mm^3. Each group consisted of 6-10 tumor-bearing mice. The testing article (vehicle, compound or combination) was orally administrated to the mice according to the predetermined doses for 14-days or 21-days. Animal body weight and tumor volume were measured every 2- or 3-days throughout the treatment.

[3] = system: adjuvant-induced arthritis; assay: Adjuvant-induced arthritis (AA/AIA) model in female Lewis rats (paw volume, clinical score, histopathology); type: in vivo, rat; design: Pathological score (Mean ± SEM), Inflammatory cell infiltration / Pathological score (Mean ± SEM), Pannus growth / Pathological score (Mean ± SEM), Cartilage injury / Pathological score (Mean ± SEM), Bone resorption / Pathological score (Mean ± SEM), Total: scale not given here; settings: for Paw volume (mL), Mean: 3 mg/kg BID (positive control)
Description: Adjuvant-Induced Arthritis AA Model: […] All rats except the normal group were immunized with complete Freund's adjuvant (CFA) subcutaneously at the left hind paw to induce arthritis at day 0. […] The treatments were given orally for 3 consecutive weeks. The body weight, paw volume and clinical score were monitored every other day after day 13 throughout the course of the study. At the terminal point, right hind paws were collected for histopathology analysis with H.E. staining.

Row | SMILES | inhibition at 0.01 µM ([1]; 0.01 uM (10 nM)) [%] | inhibition at 0.1 µM ([1]; 0.1 uM (100 nM)) [%] | inhibition at 1 µM ([1]; 1 uM (1,000 nM)) [%] | inhibition at 10 µM [1] [%] | inhibition at 100 µM [1] [%] | also measured
1 | [2H]/C=C\C(=O)N1CC[C@@H](n2nc(-c3ccc(Oc4c(F)c(F)cc(F)c4F)cc3F)c3c(N)ncnc32)C1 [Compound 7] | 33.9 | 58.7 | 58.6 | 62.9 | 99.3 | –
2 | CC[C@H](Nc1ncnc2[nH]cnc12)c1nc2cccc(F)c2c(=O)n1-c1ccccc1 [Compound 8, Idelalisib] | 29.4 | 48.8 | 68.9 | 87.7 | 96.8 | Antitumor effect (%) ([2]; FIG. 3, 21 days, 10 mg/kg): 26%; Antitumor effect (%) ([2]; FIG. 12, 14 days, 10 mg/kg): 48%
3 | C=CC(=O)N1CCC[C@@H](n2nc(-c3ccc(Oc4ccccc4)cc3)c3c(N)ncnc32)C1 [Compound 9, Ibrutinib] | 56.2 | 59.1 | 66.1 | 81.4 | 99.9 | –
4 | N#CC[C@H](C1CCCC1)n1cc(-c2ncnc3[nH]ccc23)cn1 [Compound 10, Ruxolitinib] | 0.05 | -5.53 | 101 | – | – | –
5 | C[C@@H]1CCN(C(=O)CC#N)C[C@@H]1N(C)c1ncnc2[nH]ccc12 [Compound 11, Tofactinib] | – | – | – | – | – | Inh % on TMD-8 cell line (AVG) ([1]; 0.01 uM (10 nM)): 6.02%; Inh % on TMD-8 cell line (AVG) ([1]; 0.1 uM (100 nM)): 1.31%; Inh % on TMD-8 cell line (AVG) ([1]; 1 uM (1,000 nM)): 6.66%; Paw volume (mL), Mean ([3]; Day 0): 1.00 mL; Paw volume (mL), Mean ([3]; Day 17): 1.54*** mL; Paw volume (mL), Mean ([3]; Day 26): 1.37*** mL; Paw volume (mL), Mean ([3]; Day 28): 1.33*** mL; Paw volume (mL), Mean ([3]; Day 31): 1.23*** mL; Paw volume (mL), Mean ([3]; Day 33): 1.23*** mL; Pathological score (Mean ± SEM), Bone resorption ([3]; AA study, 11, 3 mg/kg): 0.5 ± 0.22; Pathological score (Mean ± SEM), Cartilage injury ([3]; AA study, 11, 3 mg/kg): 0.2 ± 0.20; Pathological score (Mean ± SEM), Inflammatory cell infiltration ([3]; AA study, 11, 3 mg/kg): 1.9 ± 0.18; Pathological score (Mean ± SEM), Pannus growth ([3]; AA study, 11, 3 mg/kg): 0.4 ± 0.22; Pathological score (Mean ± SEM), Total ([3]; AA study, 11, 3 mg/kg): 3.0 ± 0.73
6 | CC1(C)CCC(CN2CCN(c3ccc(C(=O)NS(=O)(=O)c4ccc(NCC5CCOCC5)c([N+](=O)[O-])c4)c(Oc4cnc5[nH]ccc5c4)c3)CC2)=C(c2ccc(Cl)cc2)C1 [Compound 12, Venetoclax] | 11.1 | 18.8 | 37.6 | – | – | Inh % on TMD-8 cell line (AVG) ([1]; 0.01 uM (10 nM)): 11.12%; Inh % on TMD-8 cell line (AVG) ([1]; 0.1 uM (100 nM)): 18.81%; Inh % on TMD-8 cell line (AVG) ([1]; 1 uM (1,000 nM)): 37.55%; Antitumor effect (%) ([2]; FIG. 12, 14 days, 5 mg/kg): 12%
7 | Cc1cc(O)c(-c2ccc([C@@H](C)CN(C)C)cc2)c2c1[nH]c(=O)c1sccc12 [Compound 13, (R)-9-(4-(1-(dimethylamino)propan-2-yl)phenyl)-8-hydroxy-6-methylthieno[2,3-c]quinolin-4(5H)-one] | 8.71 | 49.1 | 101 | – | – | –
